Assays:
Type in all cases: cell-based, human
[1] = tested on: ER-α negative MDA-MB-231 cell line; test: MTT cell proliferation assay in MDA-MB-231; conditions: MDA-MB-231, DMEM with 10% FBS
Experimental: FIG. 10. The effects of let-7a, let-7b, and let-7i miRNAs on cell proliferation in ER-α negative MDA-MB-231 cell line. Cancer cell proliferation was monitored by MTT assays in the same way as in MCF7 cell line except MDA-MB-231 cells were grown in DMEM with 10% FBS.
MTT cell proliferation assay. MCF7 cells were transfected with let-7 mimics or negative controls (60 nmol/L) in normal growth medium for 1 day, or in medium with 2.5% charcoal-stripped FBS for 2 days to exhaust endogenous estrogen, following the protocol of siPORT NeoFX Transfection Agent (Applied Biosystems). For the experiment in normal growth medium, 10^4 cells in the volume of 100 μL were seeded in a 96-well plate for 12 hours and assay lasted for another 4 days. For experiments in E2 free medium, 1.5 10^4 cells were seeded in a 96-well plate for 12 hours and then exposed to 10 nmol/L E2, or not, for up to 4 days. For both experiments, each treatment had 12 replicates on the plate. The cells were then incubated in 0.83 mg/mL 3-[4,5-dimethylthiazol-2-yl]-2,5-diphenyltetrazolium bromide (MTT) in growth medium at 37° C. for 4 h and lysed in 100 μL of DMSO at room temperature for 15 min. The absorbance in each well was measured at 490 nm by an ELx800 Absorbance Microplate Reader (Biotek). Cell proliferation was normalized to day 0.

ER-α36 mRNA = test: Real-time PCR of ER-α36 mRNA after transfection; conditions: for ER-α36 mRNA expression: MDA-MB-231, mimics, vs negative control miRNA; for ER-α36 mRNA level: MDA-MB-231, two days post transfection
Experimental: To assess the expression levels of ER-α66 and ER-α36 with real-time PCR, total RNA was extracted using Trizol reagent (Invitrogen, Carsbad, Calif.). One microgram RNA was used for cDNA synthesis with the SuperScript III first-strand synthesis system (Invitrogen, Carsbad, Calif.). After 10 dilution, 4 μL cDNA was used in 20 μL reaction volume, which includes 4 μL of 1.5 μmol/L primers, 2 μL of 2 μmol/L probes, and 10 μL TaqMan universal PCR master mix with ampErase UNG (Applied Biosystems). The reaction condition was the same as miRNA real-time PCR. β-Actin was the internal control (Applied Biosystems, Foster City, Calif.). The primers for ER-α66 are: 5′-GCGGCCACGGACCAT (forward) (SEQ ID NO:20); 5′-[…] (SEQ ID NO:21) (reverse); 5′-FAM-[…]-TAMRA-3′ (probe) (SEQ ID NO:22). The primers for ER-α36 are: 5′-[…] (forward) (SEQ ID NO:23); 5′-[…] (reverse) (SEQ ID NO:24); 5′-[…] TAMRA-3′ (probe) (SEQ ID NO:43).
Let-7 miRNA or negative control #1 miRNA of 60 nmol/L (Ambion, Austin, Tex.) was transfected into cells with the siPORT NeoFX reagent (Ambion, Austin, Tex.) following the manufacturer's protocol.

ERK1/2 = test: Estrogen induced ERK1/2 activation (phos-ERK Western blot) in MDA-MB-231; conditions: MDA-MB-231, 10 nmol/L E2 after estrogen starvation
Experimental: After mixed with gel-loading buffer and boiled for 5 minutes, the protein samples were separated with 10% SDS-PAGE and transferred to a PVDF membrane (Millipore, Billerica, Mass.). The blots were probed with specific first antibodies and appropriate second antibodies. The blots were visualized with enhanced chemiluminescence (ECL) reagents (Pierce, Minneapolis, Minn.) and documented with a Fluor Chem FC2 (Alpha Innotech, Santa Clara, Calif.) image system. Gel density was quantified with Quantity One and expressed as a relative value against β-actin. The anti-ERK1/2 (#9102) and antipERK1/2 (#9106) were purchased from Cell Signaling Technology (Danvers, Mass.). Anti-ER-α66 (RB-9016) was obtained from Thermoscientific (Rockford, Ill.). Anti-ER-α36 antibody was an affinity-purified rabbit polyclonal anti-ER-36 antibody generated as a custom service from Pacific Immunology Corp (Ramona, Calif.). The ER-α36 antibody was raised against a synthetic peptide antigen corresponding to the unique C-terminal 20 aa of ER-α36.
ER-α36 is mainly localized on the plasma membrane and mediates the non-genomic estrogen pathways (Wang et al., 2005, Biochem. Biophys. Res. Commun. 336:1023-7, Wang et al., 2006, Proc. Natl. Acad. Sci. U.S.A., 103:9063-8). We reasoned that the inhibition on ER-α36 expression by let-7 family miRNAs might dampen the non-genomic estrogen pathway. […]

[2] = Real-time PCR quantification of mature let-7 after mimic transfection in MCF7; conditions: for rank of forced expression throughout the time course: MCF7, relative quantity against RNU48
Experimental: Quantitative real-time PCR. For miRNA quantification in FFPE tissues, total RNA was extracted as described above; for miRNA quantification in cell lines, total RNA was isolated using mirVana miRNA Isolation Kit (Ambion Inc.). cDNA was synthesized by using 100 ng total RNA in a reaction volume of 15 μL, by following the protocol of Taqman miRNA Reverse Transcription Kit (Applied Biosystems). After 15 times dilution, 9 μL cDNA was used for real-time PCR in a 20 μL reaction volume, including 10 μL of master mix and 1 μL Taqman probe (Applied Biosystems). This reaction system only detects mature miRNAs not pre-miRNAs. The level of each miRNA was expressed following the 2^−ΔΔCt or […] method using the small nuclear RNA, RNU48, as the internal reference.
For FFPE tissues, there was the same repeat number as in microarray; for cell lines, there were three biological repeats. Each sample had three technical repeats on the PCR plate. Real-time PCR was performed on an Applied Biosystems 7900HT real-time PCR instrument. PCR was initiated by two holds of 52° C. 2 min and 94° C. 10 min each, followed by 40 cycles of 15 s at 95° C. and 1 min at 60° C.

[3] = MCF7, one day post transfection, 60 nmol/L each

Substance | cell growth (MTT) [1] | ER-α36 mRNA expression (ER-α36 mRNA) | ER-α36 mRNA level (ER-α36 mRNA) | estrogen induced activation of the ERK1/2 (nongenomic estrogen pathway) (ERK1/2) | rank of forced expression throughout the time course [2] | expression of let-7b relative to let-7a and let-7i ([2]; MCF7, after 2 days) | mature let-7b level relative to let-7a ([2]; MCF7, after 6 days) | mature let-7b level relative to let-7a [2, 3] | mature let-7b level relative to let-7i [2, 3]
let-7i: let-7i miRNA (mimic), 3′-UUGUCGUGUUUGAUGAUGGAGU-5′ (SEQ ID NO:14) (chemistry not given here; listed 3' to 5') | None of three miRNAs significantly inhibited cell growth | 30 % of the controls | inhibited | significantly inhibited | in the middle | – | – | – | –
let-7b: let-7b miRNA (mimic), 3′-UUGGUGUGUUGGAUGAUGGAGU-5′ (SEQ ID NO:8) (chemistry not given here; listed 3' to 5') | None of three miRNAs significantly inhibited cell growth | 30 % of the controls | inhibited | significantly inhibited | highest expression | 2 | ~10 | ~20 | ~6

Reference: patent US8841269B2, “Polynucleotides for use in treating and diagnosing cancers” (Creighton University, priority 2010, dated 2014)
